Source: patent US20120264811A1, “Elongator Proteins and Use Thereof as DNA Demethylases” (The University of North Carolina at Chapel Hill, priority 2009, published 2012)
Entries after “also recorded” stand apart in the source; their conditions may differ.

Columns and labels:
[1] = system: NIH3T3 cells that stably express CxxC-EGFP; assay: CxxC-EGFP reporter dot formation in NIH3T3 cells; type: cell-based, mouse; conditions: 5 μM for 72 hours
[2] = system: paternal DNA demethylation; assay: chemical injection into oocytes, paternal DNA demethylation; type: cell-based, mouse; conditions: approximately 10 pl of 10 μM in ethanol injected; final concentration estimated 0.4 μM
Experimental: For chemical injection, approximately 10 pl of 3,5-Di-tert-butyltoluene and butylated hydroxytoluence (Sigma Aldrich) at the concentration of 10 μM in ethanol were injected with H3.3-mRFP1 mRNA. The final chemical concentration is estimated as
0.4 μM based on an estimated mouse oocyte volume of 270 pl. The final estimated ethanol concentration is about 4%. For determination of knockdown efficiency, RNA isolated from 10-20 zygotes at PN4-5 stage was used for reverse transcription using the SuperScript III Cell Direct cDNA synthesis kit (Invitrogen) followed by quantitative PCR (qPCR) using SYBR GreenER (Invitrogen). Results were normalized with 18S rRNA as a standard.

SMILES | number and intensity of GFP bright dots (nuclear dot-formation of CxxC probe) [1] | paternal DNA demethylation after chemical injection [2]
Nc1ncn([C@H]2C[C@H](O)[C@@H](CO)O2)c(=O)n1 [5-Aza-dC, 5-Aza-2′ deoxycytidine] | clear increase; also recorded: Enhanced nuclear dot-formation | –
Cc1cc(C(C)(C)C)c(O)c(C(C)(C)C)c1 [butylated hydroxytoluene] | – | blocked DNA demethylation
